Data reported in BigSolDB 2.1.

CCCCCCCCCCCCCCCCCCC
solubility (mole fraction) (in cyclohexane, 282.25 K): 0.201 | solubility (mole fraction) (in cyclohexane, 283.95 K): 0.233 | solubility (mole fraction) (in cyclohexane, 286.65 K): 0.29 | solubility (mole fraction) (in cyclohexane, 289.65 K): 0.359 | solubility (mole fraction) (in cyclohexane, 292.8 K): 0.458 | solubility (mole fraction) (in cyclohexane, 295.65 K): 0.553 | solubility (mole fraction) (in cyclohexane, 297 K): 0.6 | solubility (mole fraction) (in cyclohexane, 301.75 K): 0.75 | solubility (mole fraction) (in ethanol, 282.7 K): 0.0011 | solubility (mole fraction) (in ethanol, 284.8 K): 0.0014 | solubility (mole fraction) (in ethanol, 286 K): 0.0016 | solubility (mole fraction) (in ethanol, 287.4 K): 0.0019 | solubility (mole fraction) (in ethanol, 288.7 K): 0.0022 | solubility (mole fraction) (in ethanol, 289.95 K): 0.0025 | solubility (mole fraction) (in ethanol, 290.95 K): 0.003 | solubility (mole fraction) (in ethanol, 292.45 K): 0.0035 | solubility (mole fraction) (in ethanol, 293.75 K): 0.0041 | solubility (mole fraction) (in ethanol, 295.6 K): 0.0051 | solubility (mole fraction) (in ethanol, 297.25 K): 0.0062 | solubility (mole fraction) (in ethanol, 300.85 K): 0.0083 | solubility (mole fraction) (in ethanol, 303.85 K): 0.0115 | solubility (mole fraction) (in n-heptane, 278.25 K): 0.129 | solubility (mole fraction) (in n-heptane, 279.5 K): 0.145 | solubility (mole fraction) (in n-heptane, 280.95 K): 0.164 | solubility (mole fraction) (in n-heptane, 282.45 K): 0.19 | solubility (mole fraction) (in n-heptane, 284.25 K): 0.22 | solubility (mole fraction) (in n-heptane, 286.55 K): 0.256 | solubility (mole fraction) (in n-heptane, 288.7 K): 0.314 | solubility (mole fraction) (in n-heptane, 290.95 K): 0.393 | solubility (mole fraction) (in n-heptane, 293.7 K): 0.478 | solubility (mole fraction) (in n-heptane, 296.95 K): 0.611 | solubility (mole fraction) (in n-heptane, 302.3 K): 0.786

CCCCCCCCCCCCCCCCCC
solubility (mole fraction) (in cyclohexane, 281.45 K): 0.214 | solubility (mole fraction) (in cyclohexane, 284.35 K): 0.265 | solubility (mole fraction) (in cyclohexane, 287.2 K): 0.35 | solubility (mole fraction) (in cyclohexane, 290.95 K): 0.445 | solubility (mole fraction) (in cyclohexane, 294.8 K): 0.576 | solubility (mole fraction) (in cyclohexane, 297.05 K): 0.704 | solubility (mole fraction) (in ethanol, 283.05 K): 0.0018 | solubility (mole fraction) (in ethanol, 285.75 K): 0.0025 | solubility (mole fraction) (in ethanol, 287.7 K): 0.0032 | solubility (mole fraction) (in ethanol, 289.25 K): 0.0038 | solubility (mole fraction) (in ethanol, 291 K): 0.0047 | solubility (mole fraction) (in ethanol, 292.6 K): 0.0058 | solubility (mole fraction) (in ethanol, 294.35 K): 0.0072 | solubility (mole fraction) (in ethanol, 296.2 K): 0.0093 | solubility (mole fraction) (in ethanol, 297.95 K): 0.0122 | solubility (mole fraction) (in ethanol, 299.45 K): 0.0162 | solubility (mole fraction) (in n-heptane, 276.9 K): 0.124 | solubility (mole fraction) (in n-heptane, 279 K): 0.151 | solubility (mole fraction) (in n-heptane, 281.4 K): 0.183 | solubility (mole fraction) (in n-heptane, 283.7 K): 0.225 | solubility (mole fraction) (in n-heptane, 287.6 K): 0.314 | solubility (mole fraction) (in n-heptane, 290.15 K): 0.393 | solubility (mole fraction) (in n-heptane, 291.9 K): 0.458 | solubility (mole fraction) (in n-heptane, 293.65 K): 0.524 | solubility (mole fraction) (in n-heptane, 296.4 K): 0.647 | solubility (mole fraction) (in n-heptane, 297.65 K): 0.733
